The record followed here is patent US12290521B2, “Methods and materials for identifying and treating BET inhibitor-resistant cancers” (Mayo Foundation for Medical Education and Research, priority 2018, dated 2025).

Assay [1] has as its system BRD4. Nature of the assay: Western blot of BRD4 protein, ubiquitination and half-life in DU145 cells. It is filed as cell-based, human. The following applies: DU145 cells; JQ1, 24 hours. The method, then:
Co-Immunoprecipitation (Co-IP) Cells were harvested and lysed by IP buffer (50 mM Tris-HCl, pH 7.4, 150 mM NaCl, 1% Triton X-100, 1% sodium deoxycholate and 1% protease inhibitor cocktails) on ice for more than 15 minutes. Cell lysate was centrifuged for 15 minutes at 13,000 rpm at 4° C., and the supernatant was incubated with primary antibodies and protein A/G agarose beads (Thermo Fisher Scientific) with rotating at 4° C. overnight. The next day, the pellet was washed at least six times with 1×IP buffer on ice, and then subjected to western blotting analysis. Western Blotting
Cells were harvested and lysed by IP buffer (50 mM Tris-HCl, pH 7.4, 150 mM NaCl, 1% Triton X-100, 1% sodium deoxycholate and 1% protease inhibitor cocktails) on ice for more than 15 minutes. Cell lysate was centrifuged for 15 minutes at 13,000 rpm at 4° C., and the supernatant was quantified by BCA protein quantification assay. Equal amounts of protein sample were added into 4× sample buffer and boiled for 5 minutes. The sample was subjected to SDS-PAGE analysis and transferred to nitrocellulose membrane. The membrane was blocked by 5% milk for 1 hour at room temperature and incubated with primary antibody at 4° C. overnight. The next day, the membrane was washed three times with 1×TBST and incubated with horseradish peroxidase-conjugated secondary antibodies for 1 hour at room temperature. The protein bands were visualized by SuperSignal West Pico Stable Peroxide Solution (Thermo Fisher Scientific).

The subject of assay [2] is C4-2 xenograft tumors. Nature of the assay: Prostate cancer xenografts in NSG mice. It is filed as in vivo. Conditions: SPOP-F133V C4-2 xenografts; JQ1 50 mg/kg i.p. 5 days a week, day 21. The method, then: 6-week-old NOD-SCID IL-2-receptor gamma null (NSG) mice were generated and randomly divided into different experimental groups as indicated. All mice were housed in standard conditions with a 12-hour light/dark cycle and access to food and water ad libitum. For BRD2/3/4 knockdown studies, C4-2 cells (5×10^6), infected with lentivirus expressing empty vector (EV) or HA-SPOP-F133V mutant in combination with control shRNA or BRD2/3/4-specific shRNA, were mixed with Matrigel (in 100 μL 1×PBS plus 100 μL Matrigel (BD Biosciences)) and injected s.c. into the right flank of mice. After xenografts reached the size of about 100 mm^3, vehicle (10% beta cyclodextrin) or JQ1 (Sigma-Aldrich) at 50 mg/kg body weight was administered by i.p. injection 5 days a week. For studies with tumors treated with JQ1 and AKT inhibitor GDC-0068, C4-2 cells (5×10^6) infected with lentivirus expressing empty vector (EV) or HA-SPOP-F133V mutant were mixed with Matrigel (in 100 μL 1×PBS plus 100 μL Matrigel (BD Biosciences)) and injected s.c. into the right flank of mice. […] Growth in tumor volume was measured in a blinded fashion using digital caliper, and tumor volumes were estimated using the formula (L×W2)/2, where L is length of tumor and W is width. The volumes of tumors were compared, and P values were determined by a two-tailed Student's t test. […]

The test system of assay [3] is SPOP and BRD2/3/4. The assay is described as follows: Western blot, co-IP and in vivo ubiquitination assay in 293T cells. The following applies: JQ1 1 μM, 24 hours. It counts as cell-based, human. The method, then: To immunoprecipitate the ectopically expressed FLAG-tagged proteins, transfected cells were lysed 24 hours post-transfection in BC100 buffer. The whole-cell lysates were immunoprecipitated with the monoclonal anti-FLAG antibody-conjugated M2 agarose beads (Sigma-Aldrich) at 4° C. overnight. After three washes with lysis buffer, followed by two washes with BC100 buffer, the bound proteins were eluted using FLAG-Peptide (Sigma-Aldrich) prepared in BC100 for 3 hours at 4° C. The eluted protein sample was resolved by SDS-PAGE. To immunoprecipitate the endogenous proteins, cells were lysed with 1× cell lysis buffer (Cell Signaling Technology), and the lysate was centrifuged. The supernatant was precleared with protein A/G beads (Sigma-Aldrich) and incubated with the indicated antibody and protein A/G beads at 4° C. overnight. Beads were washed five times with lysis buffer and resuspended in sample buffer and analyzed by SDS-PAGE.
Cell lysates or immunoprecipitates were subjected to SDS-PAGE, and proteins were transferred to nitrocellulose membranes (GE Healthcare Sciences). The membranes were blocked in Tris-buffered saline (TBS, pH 7.4) containing 5% non-fat milk and 0.1% Tween-20, washed twice in TBS containing 0.1% Tween-20, and incubated with primary antibody overnight at 4° C., followed by secondary antibody for 1 hour at room temperature. The proteins of interest were visualized using ECL chemiluminescence system (Santa Cruz Biotechnology). Densitometry analysis of protein bands was analyzed on the Gel-Pro Analyzer software.
For the in vivo ubiquitination assay, C4-2 cells were transfected with plasmids for HA-Ub, FLAG-BRD4, and other indicated proteins. C ells were treated with 20 μM MG132 for 8 hours before being harvested and lysed with lysis buffer (50 mM Tris-HCl, pH 7.5, 150 mM NaCl, 1% NP40, 0.5% sodium deoxycholate, 1× protease inhibitor cocktail (PIC)). The lysate was subjected to co-immunoprecipitation using anti-FLAG-conjugated agarose beads as described in the Co-IP assay.

In the case of `Cc1sc2c(c1C)C(c1ccc(Cl)cc1)=N[C@@H](CC(=O)OC(C)(C)C)c1nnc(C)n1-2` [JQ1], in assay [1], the BRD4 polyubiquitination entry is given as “markedly inhibited”. Besides, in assay [2], the xenograft tumor growth result was “JQ1-resistance”. Also, in assay [3], the SPOP-BRD2/3/4 protein interaction entry is on record as “diminished”; the “SPOP-induced BRD2/3/4 ubiquitination and degradation” value is “partially blocked”.
